Key:
[1] = test system: intracellular Ca2+ (LRP1 / NMDA receptor) in RGC; assay: Intracellular Ca2+ increase in RGC after glutamate+glycine (Fluo-8 fluorescence); type: cell-based, rat; settings: E-LP 100 ng protein/mL, 15 minutes before 300 μM glutamate+10 μM glycine
Protocol: The inflow of calcium into RGC was confirmed in the manner as described below. Specifically, RGC was incubated on a microdish at least for 14 days, followed by incubation at 37° C. for 30 minutes using 3 μM Fluo-8 acetoxymethyl ester (AAT Bioquest, Sunnyvale, Calif.). The resulting cells were washed twice with 500 μl of the above HBSS, and 300 μM glutamate and 10 μM glycine were poured. The fluorescence images were taken at every 500 msec by ORCA-R2 digital camera (Hamamatsu Photonics, Hamamatsu, Japan) and analyzed by MetaFluor fluorescence ratio imaging software (Molecular Devices, Sunnyvale, Calif.).
RGC was labeled with Fluo-8 acetoxymethyl ester for 30 minutes, and Glu (300 μM glutamate+10 μM glycine) was added thereto. Fluorescent ratio images were as represented by colors indicated by the color index shown at the lower side of FIG. 12A. The color was represented as Ratio 0 and Ratio 2 corresponding to the base fluorescent intensity (Ratio 1) before Glu stimulation. The panels on the left and right sides indicate Glu and Glu+E-LP, respectively. […] The scale bar is 80 μm.
FIGS. 12B and C show variations of fFuo-8 fluorescence represented by ΔF/F0. In the figures, F0 indicates the base fluorescence intensity before Glu stimulation. * and **: p<0.005 and p<0.0001 (Glu vs. Glu+E-LP). […]

[2] = target: T1, complex of LRP1 and NMDA receptor (Rattus norvegicus, UniProt G3V928); assay: Immune precipitation of LRP1-NMDA receptor complex from RGC; type: cell-based; settings: LP added to RGC culture, cells collected in 15 minutes; anti-NMDA receptor 2B immune precipitation
T1 construct: endogenous in cells
Protocol: LP was added to a culture liquid of the retinal glia cells and the cells were collected in 15 minutes, followed by the immune precipitation as will be described below. For the immune precipitation, a rabbit anti-NMDA receptor 2B antibody was used, and the Western blotting was performed for LRP1 and NMDA receptor 2B.
The immune precipitation was carried out in the manner as will be described below. Specifically, the co-immunoprecipitation was performed in accordance with procedures of May et al. (May et al., 2004) by using a mixed solution prepared by adding a RGC dissolved solution to a mixed solution of a complete EDTA-free protease inhibitor cocktail (Roche, Mannheim, Germany) and a PhosSTOP phosphatase inhibitor cocktail (Roche) and a mixture of 10 mM Tris-HCl (pH7.4), 150 mM NaCl, 1 mM MgCl2, 1 mM CaCl2 and 1% Triton X-100. RGC was washed once with HBSS and collected on a 96-well plate using 40 μl per well of a dissolving buffer. The dissolved solutions from wells 9-12 were combined in each group. The RGC dissolved solution was passed fifteen times through a 22-gauge needle and then centrifuged at 15,000×g for 15 minutes at 4° C. The resulting supernatant was pretreated at 4° C. for 1 hour with 40 μl of 50% equilibrated protein G-Sepharose (GE Healthcare, Buckinghamshire, UK), and the Sepharose beads were removed by centrifugation. […]

T1 sequence (G3V928 20-3944 limits assumed, one chain of several): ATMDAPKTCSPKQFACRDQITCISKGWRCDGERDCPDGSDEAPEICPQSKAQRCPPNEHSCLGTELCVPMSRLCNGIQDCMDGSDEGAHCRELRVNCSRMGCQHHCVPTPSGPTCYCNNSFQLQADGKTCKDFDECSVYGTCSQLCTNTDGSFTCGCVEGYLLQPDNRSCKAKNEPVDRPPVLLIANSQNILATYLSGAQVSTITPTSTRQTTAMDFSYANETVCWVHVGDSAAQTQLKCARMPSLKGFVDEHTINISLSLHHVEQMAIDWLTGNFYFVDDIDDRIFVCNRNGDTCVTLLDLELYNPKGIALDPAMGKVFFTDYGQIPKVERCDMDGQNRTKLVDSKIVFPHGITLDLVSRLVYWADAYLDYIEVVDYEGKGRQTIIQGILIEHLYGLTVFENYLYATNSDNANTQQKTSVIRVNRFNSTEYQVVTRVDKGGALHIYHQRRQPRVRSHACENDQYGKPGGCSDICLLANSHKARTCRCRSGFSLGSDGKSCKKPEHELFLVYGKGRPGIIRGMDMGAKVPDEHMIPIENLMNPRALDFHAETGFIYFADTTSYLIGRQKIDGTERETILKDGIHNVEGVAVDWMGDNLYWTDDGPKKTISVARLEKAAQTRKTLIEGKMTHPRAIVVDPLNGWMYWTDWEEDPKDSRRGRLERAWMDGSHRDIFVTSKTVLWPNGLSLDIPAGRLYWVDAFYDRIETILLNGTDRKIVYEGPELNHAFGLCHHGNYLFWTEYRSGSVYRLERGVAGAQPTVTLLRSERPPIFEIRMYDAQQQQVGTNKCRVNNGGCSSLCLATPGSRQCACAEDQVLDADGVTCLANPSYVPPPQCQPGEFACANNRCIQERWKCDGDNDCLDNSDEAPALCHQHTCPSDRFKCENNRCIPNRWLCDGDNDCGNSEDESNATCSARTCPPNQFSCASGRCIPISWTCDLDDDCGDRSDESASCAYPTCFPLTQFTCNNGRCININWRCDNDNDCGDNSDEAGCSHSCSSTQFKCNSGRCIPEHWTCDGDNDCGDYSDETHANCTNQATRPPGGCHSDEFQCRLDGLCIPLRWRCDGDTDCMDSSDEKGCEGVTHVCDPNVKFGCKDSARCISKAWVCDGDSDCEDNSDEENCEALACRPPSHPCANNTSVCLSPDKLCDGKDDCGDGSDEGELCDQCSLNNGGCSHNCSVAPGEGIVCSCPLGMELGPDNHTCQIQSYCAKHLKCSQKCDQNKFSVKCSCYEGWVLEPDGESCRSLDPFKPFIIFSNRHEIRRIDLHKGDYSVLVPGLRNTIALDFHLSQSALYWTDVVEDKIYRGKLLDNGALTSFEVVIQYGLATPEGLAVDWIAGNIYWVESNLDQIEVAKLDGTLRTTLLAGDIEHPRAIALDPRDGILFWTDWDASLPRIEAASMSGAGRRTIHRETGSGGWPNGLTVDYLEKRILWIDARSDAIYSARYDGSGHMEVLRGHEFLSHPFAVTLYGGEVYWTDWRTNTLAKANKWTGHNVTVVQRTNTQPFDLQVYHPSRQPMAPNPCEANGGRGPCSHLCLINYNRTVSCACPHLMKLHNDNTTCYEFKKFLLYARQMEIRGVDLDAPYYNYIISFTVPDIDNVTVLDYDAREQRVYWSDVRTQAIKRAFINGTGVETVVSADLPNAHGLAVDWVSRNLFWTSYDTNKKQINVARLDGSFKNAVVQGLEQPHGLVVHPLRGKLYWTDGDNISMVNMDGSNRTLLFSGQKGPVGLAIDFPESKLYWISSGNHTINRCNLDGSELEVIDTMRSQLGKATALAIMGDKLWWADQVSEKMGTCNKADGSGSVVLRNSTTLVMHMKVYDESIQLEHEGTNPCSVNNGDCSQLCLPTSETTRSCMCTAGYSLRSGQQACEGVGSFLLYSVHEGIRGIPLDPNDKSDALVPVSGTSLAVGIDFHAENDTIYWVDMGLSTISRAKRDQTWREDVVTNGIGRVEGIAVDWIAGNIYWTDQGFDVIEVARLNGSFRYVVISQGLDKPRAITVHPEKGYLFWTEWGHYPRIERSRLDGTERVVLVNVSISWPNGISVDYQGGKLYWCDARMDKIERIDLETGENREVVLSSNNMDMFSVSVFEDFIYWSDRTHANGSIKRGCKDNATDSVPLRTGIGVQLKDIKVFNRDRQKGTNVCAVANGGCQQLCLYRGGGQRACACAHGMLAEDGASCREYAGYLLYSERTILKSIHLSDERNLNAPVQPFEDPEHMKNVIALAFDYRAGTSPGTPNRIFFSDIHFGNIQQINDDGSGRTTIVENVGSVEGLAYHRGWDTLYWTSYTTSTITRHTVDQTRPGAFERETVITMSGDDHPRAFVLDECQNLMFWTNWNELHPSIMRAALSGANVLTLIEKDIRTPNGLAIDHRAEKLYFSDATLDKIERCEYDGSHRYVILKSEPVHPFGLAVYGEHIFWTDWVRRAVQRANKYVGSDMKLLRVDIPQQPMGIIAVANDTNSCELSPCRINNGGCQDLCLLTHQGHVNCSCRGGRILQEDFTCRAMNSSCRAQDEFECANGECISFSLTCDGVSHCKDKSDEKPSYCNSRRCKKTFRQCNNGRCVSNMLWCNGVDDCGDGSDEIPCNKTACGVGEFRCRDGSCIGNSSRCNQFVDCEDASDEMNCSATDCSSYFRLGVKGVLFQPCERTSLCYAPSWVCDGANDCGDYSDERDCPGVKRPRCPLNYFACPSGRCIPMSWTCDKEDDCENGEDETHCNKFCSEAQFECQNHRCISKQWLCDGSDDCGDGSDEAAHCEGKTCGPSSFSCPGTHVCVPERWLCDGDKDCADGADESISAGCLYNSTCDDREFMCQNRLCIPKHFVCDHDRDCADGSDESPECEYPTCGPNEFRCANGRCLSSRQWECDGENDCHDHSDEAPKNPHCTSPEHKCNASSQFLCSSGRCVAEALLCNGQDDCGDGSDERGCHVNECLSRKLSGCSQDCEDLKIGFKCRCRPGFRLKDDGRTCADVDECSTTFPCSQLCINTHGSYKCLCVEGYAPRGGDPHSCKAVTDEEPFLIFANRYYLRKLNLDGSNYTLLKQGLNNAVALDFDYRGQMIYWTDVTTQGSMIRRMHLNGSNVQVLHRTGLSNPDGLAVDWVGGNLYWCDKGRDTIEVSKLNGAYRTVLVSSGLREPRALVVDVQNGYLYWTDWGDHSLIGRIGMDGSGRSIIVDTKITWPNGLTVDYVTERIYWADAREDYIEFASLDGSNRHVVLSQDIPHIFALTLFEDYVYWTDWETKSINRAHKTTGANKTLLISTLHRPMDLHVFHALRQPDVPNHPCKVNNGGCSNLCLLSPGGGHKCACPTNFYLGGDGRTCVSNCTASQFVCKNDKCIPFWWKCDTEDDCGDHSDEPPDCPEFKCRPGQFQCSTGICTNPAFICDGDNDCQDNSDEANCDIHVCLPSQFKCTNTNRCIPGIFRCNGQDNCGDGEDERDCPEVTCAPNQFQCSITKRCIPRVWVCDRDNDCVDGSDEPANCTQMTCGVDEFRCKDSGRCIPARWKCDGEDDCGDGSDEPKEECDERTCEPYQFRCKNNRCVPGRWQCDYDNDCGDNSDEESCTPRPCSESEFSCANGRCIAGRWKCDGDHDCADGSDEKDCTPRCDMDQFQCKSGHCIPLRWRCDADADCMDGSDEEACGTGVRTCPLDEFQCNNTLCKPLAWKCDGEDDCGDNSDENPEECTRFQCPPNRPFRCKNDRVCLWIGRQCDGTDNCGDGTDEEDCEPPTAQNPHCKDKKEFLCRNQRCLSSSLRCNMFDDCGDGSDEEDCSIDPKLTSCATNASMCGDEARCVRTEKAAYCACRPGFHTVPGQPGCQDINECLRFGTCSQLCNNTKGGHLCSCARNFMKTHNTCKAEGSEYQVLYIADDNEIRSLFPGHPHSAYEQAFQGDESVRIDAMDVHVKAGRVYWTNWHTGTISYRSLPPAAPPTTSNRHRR

Row | Substance | increase in intracellular Ca2+ [1] | formation of a complex of LRP1 and NMDA receptor [2]
1 | E-LP: reconstituted lipoprotein of 1-palmitoyl-2-oleyl-glycerophosphocoline, cholesterol and recombinant human apolipoprotein E, molar ratio 100:10:1 or 100:0:1 | inhibits | 
2 | LP: reconstituted lipoprotein of POPC, cholesterol and recombinant human apolipoprotein E3 |  | promotes
